Measured values published in ChEMBL document CHEMBL1149673, “A novel approach to cyclin-dependent kinase 5/p25 inhibitors: A potential treatment for Alzheimer's disease” (Bioorg Med Chem, 2007).

Key:
[1] = Inhibitory activity against Cdk2/cyclin E; design: species or system Homo sapiens
[2] = Toxicity in Vero-C1008 cells at 6.25 to 50 ug/ml; format: cell-based; details: African green monkey
[3] = molecular target: Cyclin-dependent kinase 5/CDK5 activator 1 (Homo sapiens, UniProt Q00535); assay: Inhibitory activity against Cdk5/p25; format: protein-complex assay
Cyclin-dependent kinase 5/CDK5 activator 1, sequence (Q00535 whole entry): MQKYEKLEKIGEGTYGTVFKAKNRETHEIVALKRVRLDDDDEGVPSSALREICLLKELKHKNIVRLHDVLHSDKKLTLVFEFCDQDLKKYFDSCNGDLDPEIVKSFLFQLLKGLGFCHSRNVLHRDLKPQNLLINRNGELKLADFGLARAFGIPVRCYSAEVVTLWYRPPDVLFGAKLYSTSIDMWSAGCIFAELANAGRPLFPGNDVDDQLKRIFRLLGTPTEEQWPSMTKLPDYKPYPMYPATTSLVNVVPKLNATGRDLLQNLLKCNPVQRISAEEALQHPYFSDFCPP
Cyclin-dependent kinase 5/CDK5 activator 1, sequence (Q15078 whole entry, further chain): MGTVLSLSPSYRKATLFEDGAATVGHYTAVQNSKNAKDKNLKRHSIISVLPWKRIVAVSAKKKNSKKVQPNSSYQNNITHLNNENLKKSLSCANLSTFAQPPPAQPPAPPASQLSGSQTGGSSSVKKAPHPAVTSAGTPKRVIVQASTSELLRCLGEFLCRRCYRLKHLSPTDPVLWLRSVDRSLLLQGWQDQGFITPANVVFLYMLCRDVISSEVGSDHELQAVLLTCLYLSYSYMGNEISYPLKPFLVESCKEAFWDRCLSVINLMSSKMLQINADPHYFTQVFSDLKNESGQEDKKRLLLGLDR

Homo sapiens = species on record: Homo sapiens; assay: Selectivity for Cdk5/p25 over Cdk2/cyclin E

SMILES	IC50 [1] [nM]	Activity [2]	IC50 [3] [nM]	Ratio IC50 (Homo sapiens)
Cc1cc(NC(=O)CCl)sc1-c1nnc2sc(-c3cccc([N+](=O)[O-])c3)nn12	64	Not Active	53	1
Cc1cc(NC(=O)CCl)sc1-c1nnc2n1N=C(c1cc(F)c(Cl)cc1Cl)/C(=C/c1ccc(Cl)cc1)S2	–	Not Active	2970	–
Cc1cc(NC(=O)CCl)sc1-c1nnc2n1NC(c1ccccc1)=C(c1ccccc1)S2	154	Not Active	72	2
Cc1cc(NC(=O)CCl)sc1-c1nnc2n1NC(=O)CS2	–	Not Active	820	–
CC(=O)Nc1cc(-c2ccccc2)c(-c2nnc3n2N=C(c2cc(F)c(Cl)cc2Cl)/C(=C/c2ccccc2)S3)s1	–	Not Active	1450	–
Cc1cc(NC(=O)CCl)sc1-c1nnc(S)n1N	49	Not Active	46	–
O=C(CCl)Nc1cc(-c2ccccc2)c(-c2nnc3n2N=C(c2cc(F)c(Cl)cc2Cl)/C(=C/c2ccccc2)S3)s1	–	Not Active	2490	–
CC(=O)Nc1cc(C)c(-c2nnc3n2N=C(c2cc(F)c(Cl)cc2Cl)/C(=C/c2ccc(Cl)cc2)S3)s1	–	Not Active	3390	–
O=C(CCl)Nc1cc(-c2ccccc2)c(-c2nnc3n2N=C(c2cc(F)c(Cl)cc2Cl)/C(=C/c2ccccc2Cl)S3)s1	–	Not Active	2460	–
O=C(CCl)Nc1cc(-c2ccccc2)c(-c2nnc3n2NC(c2ccccc2)=C(c2ccccc2)S3)s1	126	Not Active	62	2
CC(=O)Nc1cc(-c2ccccc2)c(-c2nnc3n2NC(=O)CS3)s1	–	Not Active	418	–
Cc1cc(NC(=O)CCl)sc1-c1nnc2n1N=C(c1cc(F)c(Cl)cc1Cl)/C(=C/c1ccccc1)S2	–	Not Active	3420	–
Cc1cc(NC(=O)CCl)sc1-c1nnc2n1N=C(c1cc(F)c(Cl)cc1Cl)/C(=C/c1ccccc1Cl)S2	–	Not Active	3340	–
O=C(CCl)Nc1cc(-c2ccccc2)c(-c2nnc3sc(S)nn23)s1	–	Not Active	5900	–
CC(=O)Nc1cc(-c2ccccc2)c(-c2nnc3n2NC(c2ccccc2)=C(c2ccccc2)S3)s1	82	Not Active	40	2
CC(=O)Nc1cc(C)c(-c2nnc(S)n2N)s1	53	Not Active	58	1
Cc1cc(NC(=O)CCl)sc1-c1nnc2sc(=S)[nH]n12	–	Not Active	7480	–
O=C(CCl)Nc1cc(-c2ccccc2)c(-c2nnc3n2N=C(c2cc(F)c(Cl)cc2Cl)/C(=C/c2cccc([N+](=O)[O-])c2)S3)s1	–	Not Active	2680	–
CC(=O)Nc1cc(-c2ccccc2)c(-c2nnc3n2N=C(c2cc(F)c(Cl)cc2Cl)/C(=C/c2ccc(Cl)cc2)S3)s1	–	Not Active	2480	–
CC(=O)Nc1cc(C)c(-c2nnc3n2N=C(C)CS3)s1	–	Not Active	642	–
CC(=O)Nc1cc(C)c(-c2nnc3n2N=C(c2cc(F)c(Cl)cc2Cl)/C(=C/c2ccccc2Cl)S3)s1	–	Not Active	3280	–
CC(=O)Nc1cc(-c2ccccc2)c(-c2nnc3n2N=C(c2cc(F)c(Cl)cc2Cl)/C(=C/c2ccccc2Cl)S3)s1	–	Not Active	2460	–
CC(=O)Nc1cc(-c2ccccc2)c(-c2nnc3sc(-c4cccc([N+](=O)[O-])c4)nn23)s1	64	Not Active	60	1
CC(=O)Nc1cc(C)c(-c2nnc3sc(=S)[nH]n23)s1	–	Not Active	3260	–

SMILES	IC50 [1] [nM]	Activity [2]	IC50 [3] [nM]	Ratio IC50 (Homo sapiens)
O=C(CCl)Nc1cc(-c2ccccc2)c(-c2nnc3n2Nc2nc4ccccc4nc2S3)s1	102	Not Active	30	3.2
Nn1c(S)nnc1-c1sc(NC(=O)CCl)cc1-c1ccccc1	120	Not Active	42	3
CC1=Nn2c(nnc2-c2sc(NC(=O)CCl)cc2C)SC1	–	Not Active	462	–
CC(=O)Nc1cc(-c2ccccc2)c(-c2nnc3n2N=C(c2cc(F)c(Cl)cc2Cl)/C(=C/c2cccc([N+](=O)[O-])c2)S3)s1	–	Not Active	2440	–
Cc1cc(NC(=O)CCl)sc1-c1nnc2n1N=C(c1cc(F)c(Cl)cc1Cl)/C(=C/c1cccc([N+](=O)[O-])c1)S2	–	Not Active	3070	–
CC(=O)Nc1cc(C)c(-c2nnc3sc(-c4ccccc4)nn23)s1	51	Not Active	42	1.2
CC(=O)Nc1cc(-c2ccccc2)c(-c2nnc3sc(=S)[nH]n23)s1	–	Not Active	2060	–
CC(=O)Nc1cc(-c2ccccc2)c(-c2nnc3n2Nc2nc4ccccc4nc2S3)s1	64	Not Active	54	1.2
CC(=O)Nc1cc(-c2ccccc2)c(-c2nnc3sc(-c4ccccc4)nn23)s1	44	Not Active	38	1.2
Cc1cc(NC(=O)CCl)sc1-c1nnc2n1Nc1nc3ccccc3nc1S2	142	Not Active	64	2.2
O=C(CCl)Nc1cc(-c2ccccc2)c(-c2nnc3sc(-c4cccc([N+](=O)[O-])c4)nn23)s1	52	Not Active	48	1
CC(=O)Nc1cc(C)c(-c2nnc3sc(-c4cccc([N+](=O)[O-])c4)nn23)s1	78	Not Active	64	1
CC(=O)Nc1cc(C)c(-c2nnc3n2NC(=O)CS3)s1	–	Not Active	630	–
CC(=O)Nc1cc(-c2ccccc2)c(-c2nnc3n2N=C(C)CS3)s1	–	Not Active	448	–
CC(=O)Nc1cc(C)c(-c2nnc3n2N=C(c2cc(F)c(Cl)cc2Cl)/C(=C/c2cccc([N+](=O)[O-])c2)S3)s1	–	Not Active	3050	–
CC(=O)Nc1cc(C)c(-c2nnc3n2Nc2nc4ccccc4nc2S3)s1	70	Not Active	34	2
Cc1cc(NC(=O)CCl)sc1-c1nnc2sc(-c3ccccc3)nn12	95	Not Active	30	3.2
CC(=O)Nc1cc(C)c(-c2nnc3n2NC(c2ccccc2)=C(c2ccccc2)S3)s1	89	Not Active	44	2
O=C(CCl)Nc1cc(-c2ccccc2)c(-c2nnc3n2NC(=O)CS3)s1	–	Not Active	634	–
O=C(CCl)Nc1cc(-c2ccccc2)c(-c2nnc3n2N=C(c2cc(F)c(Cl)cc2Cl)/C(=C/c2ccc(Cl)cc2)S3)s1	–	Not Active	2450	–
CC1=Nn2c(nnc2-c2sc(NC(=O)CCl)cc2-c2ccccc2)SC1	–	Not Active	368	–
CC(=O)Nc1cc(C)c(-c2nnc3n2N=C(c2cc(F)c(Cl)cc2Cl)/C(=C/c2ccccc2)S3)s1	–	Not Active	2370	–
O=C(CCl)Nc1cc(-c2ccccc2)c(-c2nnc3sc(-c4ccccc4)nn23)s1	92	Not Active	28	3.2
CC(=O)Nc1cc(-c2ccccc2)c(-c2nnc(S)n2N)s1	56	Not Active	54	1
